Assays:
[1] = biological target: Rhodesain (Trypanosoma brucei rhodesiense) (UniProt Q95PM0); assay: Inhibition of Trypanosoma brucei rhodesiense rhodesain expressed in Pichia pastoris using Cbz-Phe-Arg-AMC as substrate assessed as inactivation constant incubated for 30 mins by fluorescence assay
[2] = biological target: Rhodesain (Trypanosoma brucei rhodesiense) (UniProt Q95PM0); assay: Inhibition of Trypanosoma brucei rhodesiense rhodesain expressed in Pichia pastoris using Cbz-Phe-Arg-AMC as substrate assessed as second order rate constant obtained from ratio of Kinact by Ki incubated for 30 mins by fluorescence assay
Trypanosoma brucei = assay: Antitrypanosomal activity against Trypanosoma brucei incubated for 24 hrs by luminescence based ClarioStar plate reader analysis; format: functional, organism-based
Rhodesain = Rhodesain (Trypanosoma brucei rhodesiense, UniProt Q95PM0); assay: Inhibition of Trypanosoma brucei rhodesiense rhodesain expressed in Pichia pastoris using Cbz-Phe-Arg-AMC as substrate assessed as inhibition constant incubated for 30 mins by fluorescence assay
Chain of Rhodesain (Q95PM0 whole entry): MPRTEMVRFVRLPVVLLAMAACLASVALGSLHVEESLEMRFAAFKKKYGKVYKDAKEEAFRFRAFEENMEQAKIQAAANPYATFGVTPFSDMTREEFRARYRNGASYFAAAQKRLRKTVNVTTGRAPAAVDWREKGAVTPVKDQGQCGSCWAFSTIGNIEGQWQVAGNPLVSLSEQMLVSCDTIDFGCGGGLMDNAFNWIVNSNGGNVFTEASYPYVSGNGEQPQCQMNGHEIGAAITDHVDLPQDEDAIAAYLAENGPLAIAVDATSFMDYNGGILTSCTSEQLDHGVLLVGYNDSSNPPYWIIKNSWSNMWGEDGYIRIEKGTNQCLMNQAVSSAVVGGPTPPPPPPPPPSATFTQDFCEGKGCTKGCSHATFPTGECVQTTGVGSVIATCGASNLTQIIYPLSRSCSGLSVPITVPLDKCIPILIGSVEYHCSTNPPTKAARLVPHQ

[3] = Cytotoxicity against human SH-SY5Y cells assessed as reduction in cell viability incubated for 24 hrs by MTT assay; format: toxicity, cell-based
[4] = biological target: Rhodesain (Trypanosoma brucei rhodesiense) (UniProt Q95PM0); assay: Inhibition of Trypanosoma brucei rhodesiense rhodesain expressed in Pichia pastoris using Cbz-Phe-Arg-AMC as substrate at 20 uM incubated for 30 mins by fluorescence assay relative to control

Chain of Rhodesain (Trypanosoma brucei rhodesiense) (Q95PM0 1-450): as the sequence (Q95PM0 whole entry) above

Kinact [1] [min⁻¹]	Ratio [2]	EC50 (Trypanosoma brucei) [nM]	Ki (Rhodesain) [nM]	inhibition [4] [%]	SMILES	CC50 at 24 h [3] [µM]
0.005	6.7 10^3/M/min	670	720	–	CC(=O)/C=C/[C@H](CCc1ccccc1)NC(=O)[C@@H]1Cc2ccccc2CN1C(=O)OCc1ccccc1	> 100
–	–	–	–	20.2	CC(=O)/C=C/[C@H](C)NC(=O)[C@@H]1Cc2ccccc2CN1C(=O)c1ccc(F)cc1F	–
–	–	–	–	18.4	CC(=O)/C=C/[C@H](Cc1ccccc1)NC(=O)[C@@H]1Cc2ccccc2CN1C(=O)c1ccc(F)cc1F	–
–	–	1300	–	–	CC(=O)/C=C/[C@H](CCc1ccccc1)NC(=O)[C@H](Cc1ccccc1)NC(=O)[C@H](CC1CCCCC1)NC(=O)OCc1ccccc1	–
0.001	47.9 10^3/M/min	570	22	–	CC(=O)/C=C/[C@H](CCc1ccccc1)NC(=O)[C@@H]1Cc2ccccc2CN1C(=O)[C@H](CC1CCCCC1)NC(=O)OCc1ccccc1	> 100
–	–	2600	–	–	CC(=O)/C=C/[C@H](CCc1ccccc1)NC(=O)[C@H](Cc1ccccc1)NC(=O)[C@H](Cc1ccccc1)NC(=O)OCc1ccccc1	–
0.015	8 10^3/M/min	850	1920	–	CC(=O)/C=C/[C@H](CCc1ccccc1)NC(=O)[C@@H]1Cc2ccccc2CN1C(=O)c1ccc(F)cc1	> 100
0.001	68.5 10^3/M/min	580	16	–	CC(=O)/C=C/[C@H](CCc1ccccc1)NC(=O)[C@@H]1Cc2ccccc2CN1C(=O)[C@H](CC(C)C)NC(=O)OCc1ccccc1	> 100
–	–	–	–	18	CC(=O)/C=C/[C@H](CCc1ccccc1)NC(=O)[C@@H]1Cc2ccccc2CN1C(=O)OC(C)(C)C	–
–	–	–	–	26	CC(=O)/C=C/[C@H](CCc1ccccc1)NC(=O)[C@@H]1Cc2ccccc2CN1C(=O)[C@H](C)NC(=O)OCc1ccccc1	–
–	–	3100	–	–	CC(=O)/C=C/[C@H](CCc1ccccc1)NC(=O)[C@H](Cc1ccccc1)NC(=O)[C@H](CC(C)C)NC(=O)OCc1ccccc1	–
–	–	–	–	14	CC(=O)/C=C/[C@H](CCc1ccccc1)NC(=O)[C@@H]1Cc2ccccc2CN1C(=O)Nc1ccc(C)cc1	–
0.012	146 10^3/M/min	1210	90	–	CC(=O)/C=C/[C@H](CCc1ccccc1)NC(=O)[C@@H]1Cc2ccccc2CN1C(=O)c1ccc(F)cc1F	> 100
–	–	–	–	11	CC(=O)/C=C/CNC(=O)[C@@H]1Cc2ccccc2CN1C(=O)c1ccc(F)cc1F	–
–	–	–	–	32	CC(=O)/C=C/[C@H](CCc1ccccc1)NC(=O)[C@@H]1Cc2ccccc2CN1C(=O)c1c(F)cccc1F	–
0.021	30.1 10^3/M/min	1350	700	–	CC(=O)/C=C/[C@H](CCc1ccccc1)NC(=O)[C@@H]1Cc2ccccc2CN1C(=O)c1cccc(F)c1	> 100
–	–	–	–	40	CC(=O)/C=C/[C@H](CCc1ccccc1)NC(=O)[C@@H]1Cc2ccccc2CN1C(=O)Nc1ccc(Cl)cc1C	–
0.019	4.1 10^3/M/min	910	4880	–	CC(=O)/C=C/[C@H](CCc1ccccc1)NC(=O)[C@@H]1Cc2ccccc2CN1C(=O)c1ccccc1F	> 100
0.001	75.6 10^3/M/min	420	11	–	CC(=O)/C=C/[C@H](CCc1ccccc1)NC(=O)[C@@H]1Cc2ccccc2CN1C(=O)[C@H](Cc1ccccc1)NC(=O)OCc1ccccc1	> 100

Reference: ChEMBL document CHEMBL6109075, “Identification of constrained peptidomimetics carrying a Michael acceptor warhead as antitrypanosomal agents” (Eur J Med Chem, 2025)
